{"source": "the NIST ThermoML archive (doi:10.1021/je5002494)", "note": "± gives the expanded uncertainty stated by the source."}
{"settings": "Liquid", "units": {"Critical pressure": "kPa", "Critical temperature": "K"}}
{"compound": "O=C=O", "note": "[carbon dioxide]", "Critical pressure": "7379.8 ± 300", "Critical temperature": "304.3 ± 3.7"}
{"compound": "CCOC(C)=O", "note": "[ethyl acetate]", "Critical pressure": "3828.9 ± 300", "Critical temperature": "523.29 ± 3.7"}
{"compound": "CCCC(=O)OCC", "note": "[ethyl butanoate]", "Critical pressure": "2891.5 ± 300", "Critical temperature": "569.98 ± 3.7"}
{"compound": "CCCCCCC(=O)OCC", "note": "[ethyl heptanoate]", "Critical pressure": "2356.9 ± 300", "Critical temperature": "635.12 ± 3.7"}
{"compound": "CCCCCC(=O)OCC", "note": "[ethyl hexanoate]", "Critical pressure": "2531.3 ± 300", "Critical temperature": "615.22 ± 3.7"}
{"compound": "CCCCCCCC(=O)OCC", "note": "[ethyl octanoate]", "Critical pressure": "2159.2 ± 300", "Critical temperature": "655.74 ± 3.7"}
{"compound": "CCCCC(=O)OCC", "note": "[ethyl pentanoate]", "Critical pressure": "2730.4 ± 300", "Critical temperature": "594.02 ± 3.7"}
{"compound": "CCOC(=O)CC", "note": "[ethyl propanoate]", "Critical pressure": "3385.6 ± 300", "Critical temperature": "546.28 ± 3.7"}
{"compound": "C/C=C/C(=O)OCC", "note": "[ethyl trans-2-butenoate]", "Critical pressure": "3670.8 ± 300", "Critical temperature": "593.84 ± 3.7"}
